Assay results as given in patent publication US20040147562A1, “Methods of treating conditions associated with an EDG-1 receptor” (priority 2002, published 2004).
Blank lines part the entries; values can stand above or below the compound they belong to.

How the values were obtained:
Assay type in all cases: cell-based
Edg-4 = Edg-4 (Homo sapiens, UniProt Q9HBW0); experiment: Intracellular calcium (FLIPR) assay, HTC cells expressing Edg-4
Edg-8 = target: T1, Edg-8 (Homo sapiens, UniProt Q9H228); experiment: Intracellular calcium (FLIPR) assay, HTC cells expressing Edg-8
T1 construct: expressed in transfected cells; host or cells: HTC rat hepatoma cells

Edg-3 = target: T2, Edg-3 (Homo sapiens, UniProt Q99500); experiment: Intracellular calcium (FLIPR) assay, HTC cells expressing Edg-3
T2 construct: expressed in transfected cells; host or cells: HTC rat hepatoma cells

murine CD4 T cells = experiment: Murine CD4 T cell chemotactic response to exodus-2
Method: To assess this modulation and to test the effects of Edg-1 agonists and antagonists on this effect, murine CD4 T cells chemotactic responses to exodus-2 were tested in the presence of S1P and the Edg-1 agonist 104. These experiments were performed according to the migration and invasion assay protocols described in Section 7.12, below.
The effects of Edg-1 antagonists on S1P regulation of the chemotactic response to exodus-2 were also assessed. This experiment was performed according to the migration and invasion assay protocols described in Section 7.12, below. […] Thus, these Edg-1 antagonists can antagonize both aspects of the regulation by S1P of exodus-2-mediated chemotaxis.
Cells were plated in a 24 well format using Fluoroblok filter insert plates ([…] pore size) or Fluoroblok matrigel coated filter insert plates (Becton Dickinson, San Diego, Calif.). The assay was a modified Boyden Chamber assay in which a cell suspension (1×10^5 cells/ml) was prepared in serum free medium and added to the top chamber. LPA or S1P (doses ranged from 0.1-10 μM in serum free medium) was added to the bottom chamber. Following a 20-24 hour incubation period, the number of cells migrating or invading into the lower chamber was quantitated by transferring the filter insert into a fresh 24-well plate containing 4 μg/ml calcein AM (Molecular Probes, Sunnyvale, Calif.) in Hank's Balanced Salt Solution and staining for one hour.
Detection was via fluorescent readout at 450 nm excitation/530 nm emission using a fluorimeter. The level of fluorescence correlated with cell number.

Edg-5 = target: T3, Edg-5 (Homo sapiens, UniProt O95136); experiment: Intracellular calcium (FLIPR) assay, HTC cells expressing Edg-5
T3 construct: expressed in transfected cells; host or cells: HTC rat hepatoma cells

Edg-7 = target: T4, Edg-7 (Homo sapiens, UniProt Q9UBY5); experiment: Intracellular calcium (FLIPR) assay, HTC cells expressing Edg-7
T4 construct: expressed in transfected cells; host or cells: HTC rat hepatoma cells
T4 sequence (Q9UBY5 1-353): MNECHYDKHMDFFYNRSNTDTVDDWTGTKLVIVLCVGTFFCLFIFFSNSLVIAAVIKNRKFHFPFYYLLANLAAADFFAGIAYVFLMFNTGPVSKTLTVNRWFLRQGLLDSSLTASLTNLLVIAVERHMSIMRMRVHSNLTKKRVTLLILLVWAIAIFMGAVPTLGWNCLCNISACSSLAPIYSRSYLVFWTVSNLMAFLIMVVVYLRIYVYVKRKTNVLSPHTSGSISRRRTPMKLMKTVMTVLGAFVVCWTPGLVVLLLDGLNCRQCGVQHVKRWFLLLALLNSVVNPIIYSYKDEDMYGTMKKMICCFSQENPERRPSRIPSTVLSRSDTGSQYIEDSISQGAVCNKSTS

Edg-6 = target: T5, Edg-6 (Homo sapiens, UniProt O95977); experiment: Intracellular calcium (FLIPR) assay, HTC cells expressing Edg-6
T5 construct: expressed in transfected cells; host or cells: HTC rat hepatoma cells
T5 sequence (O95977 1-384): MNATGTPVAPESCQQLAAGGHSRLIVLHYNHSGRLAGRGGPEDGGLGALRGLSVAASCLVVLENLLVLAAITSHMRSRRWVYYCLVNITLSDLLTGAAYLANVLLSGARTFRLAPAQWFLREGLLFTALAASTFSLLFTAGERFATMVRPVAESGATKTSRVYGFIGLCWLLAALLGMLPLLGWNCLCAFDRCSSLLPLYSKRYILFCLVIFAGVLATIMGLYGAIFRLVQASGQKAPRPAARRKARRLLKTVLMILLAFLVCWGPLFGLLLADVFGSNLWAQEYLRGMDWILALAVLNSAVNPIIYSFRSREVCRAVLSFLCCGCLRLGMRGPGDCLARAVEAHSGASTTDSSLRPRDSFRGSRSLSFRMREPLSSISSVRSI

human Edg-1 receptors = experiment: Intracellular calcium (FLIPR) assay, HTC cells expressing Edg-1; details: Edg-1 relative to other Edg receptors
Method: The compounds were tested in HTC cells expressing human Edg-1 receptors. […] The compounds were tested in this recombinant system first, and subsequently tested in cell lines expressing Edg-1 (in addition to other Edg receptors).
[…] receptors such as Edg-1, couple to calcium effector pathways, and result in increases in intracellular calcium following receptor activation (An, 1998, J. Cell Biochem. Supp 30-31:147-157). This biological response lends itself to a very efficient, high-throughput screen using a Fluorescence Imaging Plate Reader (FLIPR; Molecular Devices, Sunnyvale, Calif.). The FLIPR system is a real-time, cell-based assay system with continuous fluorescence detection using a cooled CCD camera. The FLIPR system was used to develop an Edg-1 receptor screen. Rat hepatoma cells stably expressing Edg-1/3i3 chimera or Edg-1 and Gqi were plated on 384-well plates and loaded with a calcium dye loading kit (Molecular Devices, Sunnyvale, Calif.) for 1 hour at room temperature. Cells were then placed on the FLIPR^384 (Molecular Devices, Sunnyvale, Calif.) and excited by an argon laser at 488 nm. The data for the entire 384-well plate was updated every second. An integrated robotic pipettor allowed for simultaneous compound addition into each individual well in the plate.

Edg-2 = target: T6, Edg-2 (Homo sapiens, UniProt Q92633); experiment: Intracellular calcium (FLIPR) assay, HTC cells expressing Edg-2
T6 construct: expressed in transfected cells; host or cells: HTC rat hepatoma cells

[1] = concentrations as high as 20 μM
[2] = agonist, concentrations as high as 25 μM

T1 sequence (Q9H228 whole entry): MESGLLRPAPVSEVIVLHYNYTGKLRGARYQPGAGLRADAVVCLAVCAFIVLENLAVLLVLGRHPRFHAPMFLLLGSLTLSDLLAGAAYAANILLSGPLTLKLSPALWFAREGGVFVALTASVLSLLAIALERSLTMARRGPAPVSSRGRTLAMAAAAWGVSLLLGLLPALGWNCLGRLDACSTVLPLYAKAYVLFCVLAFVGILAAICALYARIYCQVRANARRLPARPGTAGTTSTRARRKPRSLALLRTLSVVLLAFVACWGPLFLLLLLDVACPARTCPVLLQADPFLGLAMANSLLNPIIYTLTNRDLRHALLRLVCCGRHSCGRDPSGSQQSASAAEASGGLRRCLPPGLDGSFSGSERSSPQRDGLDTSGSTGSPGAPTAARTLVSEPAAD
T3 sequence (O95136 whole entry): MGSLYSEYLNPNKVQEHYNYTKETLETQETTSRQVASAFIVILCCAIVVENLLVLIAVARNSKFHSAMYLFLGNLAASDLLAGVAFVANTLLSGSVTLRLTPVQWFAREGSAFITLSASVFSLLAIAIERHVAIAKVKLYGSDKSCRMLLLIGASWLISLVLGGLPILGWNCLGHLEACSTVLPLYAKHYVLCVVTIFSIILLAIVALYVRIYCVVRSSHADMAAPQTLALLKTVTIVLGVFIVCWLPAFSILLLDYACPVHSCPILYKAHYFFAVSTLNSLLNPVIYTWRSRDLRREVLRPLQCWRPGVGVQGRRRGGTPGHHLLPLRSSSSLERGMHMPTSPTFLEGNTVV
T2 sequence (Q99500 whole entry): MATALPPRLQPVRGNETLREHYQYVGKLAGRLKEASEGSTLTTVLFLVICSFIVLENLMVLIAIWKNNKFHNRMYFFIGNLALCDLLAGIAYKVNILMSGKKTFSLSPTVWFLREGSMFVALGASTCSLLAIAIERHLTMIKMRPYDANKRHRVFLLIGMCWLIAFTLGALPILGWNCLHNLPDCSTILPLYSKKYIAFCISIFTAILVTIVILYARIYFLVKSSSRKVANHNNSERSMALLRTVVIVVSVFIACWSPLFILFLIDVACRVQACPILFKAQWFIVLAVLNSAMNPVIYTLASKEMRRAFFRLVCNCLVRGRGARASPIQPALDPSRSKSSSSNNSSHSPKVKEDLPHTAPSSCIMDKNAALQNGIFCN
Chain of Edg-4 (Q9HBW0 1-340 limits assumed): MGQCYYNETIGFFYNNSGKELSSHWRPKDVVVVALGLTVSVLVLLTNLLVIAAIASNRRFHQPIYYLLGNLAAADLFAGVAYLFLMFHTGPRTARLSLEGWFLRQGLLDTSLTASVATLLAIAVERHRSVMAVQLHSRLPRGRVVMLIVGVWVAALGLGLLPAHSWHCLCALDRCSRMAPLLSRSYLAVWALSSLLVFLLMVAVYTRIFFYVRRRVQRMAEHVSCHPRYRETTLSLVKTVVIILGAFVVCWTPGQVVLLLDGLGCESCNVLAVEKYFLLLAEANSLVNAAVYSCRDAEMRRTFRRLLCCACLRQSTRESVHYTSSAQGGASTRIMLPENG
T6 sequence (Q92633 whole entry): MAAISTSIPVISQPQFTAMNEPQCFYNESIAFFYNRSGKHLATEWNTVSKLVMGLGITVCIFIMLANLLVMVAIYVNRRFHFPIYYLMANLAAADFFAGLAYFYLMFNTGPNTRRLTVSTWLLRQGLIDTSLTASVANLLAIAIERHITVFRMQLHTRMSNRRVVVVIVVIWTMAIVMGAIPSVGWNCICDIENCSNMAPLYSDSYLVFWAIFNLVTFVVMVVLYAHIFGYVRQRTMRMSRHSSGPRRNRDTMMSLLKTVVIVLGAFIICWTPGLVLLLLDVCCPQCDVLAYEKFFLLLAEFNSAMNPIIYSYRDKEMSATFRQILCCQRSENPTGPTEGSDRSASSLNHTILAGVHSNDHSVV

IC50 (Edg-4; Table 2, LPA-stimulated): > 20 µM
inhibition of LPA-stimulated calcium increases in HTC cells expressing Edg-4 (Edg-4; [1]): did not inhibit
IC50 (Edg-8; Table 2, S1P-stimulated): > 20 µM
inhibition of S1P-stimulated calcium increases in HTC cells expressing Edg-8 (Edg-8; [1]): did not inhibit
IC50 (Edg-3; Table 2, S1P-stimulated): > 20 µM
inhibition of S1P-stimulated calcium increases in HTC cells expressing Edg-3 (Edg-3; [1]): did not inhibit
IC50 (Edg-5; Table 2, S1P-stimulated): > 20 µM
inhibition of S1P-stimulated calcium increases in HTC cells expressing Edg-5 (Edg-5; [1]): did not inhibit
IC50 (Edg-7; Table 2, LPA-stimulated): > 20 µM
inhibition of LPA-stimulated calcium increases in HTC cells expressing Edg-7 (Edg-7; [1]): did not inhibit
IC50 (Edg-6; Table 2, S1P-stimulated): > 20 µM
inhibition of S1P-stimulated calcium increases in HTC cells expressing Edg-6 (Edg-6; [1]): did not inhibit
IC50 (Edg-2; Table 2, LPA-stimulated): > 20 µM
inhibition of LPA-stimulated calcium increases in HTC cells expressing Edg-2 (Edg-2; [1]): did not inhibit
SMILES: O=C(c1cccnc1)N1N=C(c2ccc(Br)cc2)CC1(O)C(F)(F)F (stereo not shown) [Compound 102]
effect on S1P-mediated desensitization of the chemotactic response to exodus-2 (murine CD4 T cells; high concentrations of S1P, FIG. 12): reverse S1P-mediated desensitization
effect on S1P-mediated stimulation of the chemotactic response to exodus-2 (murine CD4 T cells; moderate concentrations of S1P, FIG. 12): inhibit S1P-mediated stimulation
Fold Selectivity (human Edg-1 receptors; inhibition (Table 2)): >11.8 Fold

EC50 (Edg-4; agonist): > 25 µM
calcium response in HTC cells expressing Edg-4 (Edg-4; [2]): did not elicit a calcium response
EC50 (Edg-8; agonist): > 25 µM
calcium response in HTC cells expressing Edg-8 (Edg-8; [2]): did not elicit a calcium response
EC50 (Edg-3; agonist): > 25 µM
calcium response in HTC cells expressing Edg-3 (Edg-3; [2]): did not elicit a calcium response
EC50 (Edg-5; agonist): > 25 µM
calcium response in HTC cells expressing Edg-5 (Edg-5; [2]): did not elicit a calcium response
EC50 (Edg-7; agonist): > 25 µM
calcium response in HTC cells expressing Edg-7 (Edg-7; [2]): did not elicit a calcium response
EC50 (Edg-6; agonist): > 25 µM
calcium response in HTC cells expressing Edg-6 (Edg-6; [2]): did not elicit a calcium response
EC50 (Edg-2; agonist): > 25 µM
calcium response in HTC cells expressing Edg-2 (Edg-2; [2]): did not elicit a calcium response
SMILES: COc1cc(C(=O)c2cc(Cl)ccc2N)cc(OC)c1OC [Compound 104, (2-Amino-5-chlorophenyl)-(3,4,5-trimethoxyphenyl)methanone]
concentration needed relative to S1P for same effect on chemotactic response to exodus-2 (murine CD4 T cells; FIG. 11): higher concentrations of 104 than S1P are required
effect on chemotaxis of murine CD4 T cells to exodus-2 (murine CD4 T cells; low and high concentrations desensitize, moderate stimulate, FIG. 11): bell-shaped dose dependant response curve
Fold Selectivity (human Edg-1 receptors; agonist (Table 4)): >2.5 Fold
